Laboratory results reported in patent US12528761B2, “Thyromimetics” (Autobahn Therapeutics, Inc., priority 2020, dated 2026).

Target: T1, recombinant human FAAH (rhFAAH) (Homo sapiens, UniProt O00519)
T1 construct: purchased Cayman Chemical (Ann Arbor, MI, USA)
T1 sequence (O00519 1-579): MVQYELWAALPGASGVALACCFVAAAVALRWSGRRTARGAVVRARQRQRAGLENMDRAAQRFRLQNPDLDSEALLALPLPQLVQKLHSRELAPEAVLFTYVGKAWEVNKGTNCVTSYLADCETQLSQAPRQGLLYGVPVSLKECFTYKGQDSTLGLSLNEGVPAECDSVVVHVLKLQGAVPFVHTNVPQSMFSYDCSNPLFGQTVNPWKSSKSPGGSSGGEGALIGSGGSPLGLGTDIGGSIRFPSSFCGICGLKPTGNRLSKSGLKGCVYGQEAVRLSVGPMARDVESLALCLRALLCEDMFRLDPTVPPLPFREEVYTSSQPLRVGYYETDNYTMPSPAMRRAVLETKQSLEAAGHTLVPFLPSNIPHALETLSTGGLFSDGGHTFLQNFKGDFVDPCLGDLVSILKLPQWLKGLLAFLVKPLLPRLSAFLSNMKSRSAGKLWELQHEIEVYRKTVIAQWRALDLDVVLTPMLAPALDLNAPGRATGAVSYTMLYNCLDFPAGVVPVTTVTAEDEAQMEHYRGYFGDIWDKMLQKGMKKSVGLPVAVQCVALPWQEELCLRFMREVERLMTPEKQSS
Experiment: FAAH substrate evaluation (formation of acid metabolite, LC-MS/MS)
Type: biochemical
Design: key: A: ke is equal to or less than 1.0; B: ke is greater than 1.0 and less than or equal to 2.5; C: ke is greater than 2.5; NC: no conversion
Conditions: 0.5 ng/μL rhFAAH, 1 μM test compound, pH 8.0, room temperature, 0-60 minutes
Protocol: Purified recombinant human FAAH (rhFAAH) was purchased from Cayman Chemical (Ann Arbor, MI, USA). The total volume for each incubation was 400 μL containing a final 0.5 ng/μL rhFAAH, 1 μM test compound, 1.25% ethanol or 1 μM PF-3845 (FAAH inhibitor), and 0.1% bovine serum albumin in Tris-EDTA buffer at pH 8.0). The positive control was LL-341001. The incubation was conducted at the room temperature. At 0, 5, 15, 30 and 60 minutes, an aliquot of 30 μL reaction mixtures was removed and mixed with 300 μL acetonitrile containing 5 ng/mL terfenadine and 10 ng/mL tolbutamide as internal standards to quench the reaction. The resulting mixture was centrifuged at 4000 rpm, 4° C. for 15 minutes, and 100 μL supernatant was ready for LC-MS/MS analysis to measure the formation of acid metabolite.
Acquity Ultra Performance LC system from Waters was used for sample analysis. The chromatography was performed on a reverse phase Kinetex 2.6 μm C18 column, 2.1×30 mm, 100 Å. The mobile phase A comprised of 0.1% formic acid in water and mobile phase B comprised of 0.1% formic acid in acetonitrile with a 2-min run time at the flow rate of 0.8 mL/min for the acid metabolite from positive control or a 1.5 min run time at the flow rate of 0.9 mL/min for the acid metabolite of test compounds. The mass spectrometer (API-5500 and API Q Trap 4000 Applied Biosystems/MDS SCIEX Instruments, Framingham, MA, USA) was operated under ESI positive or negative ion MRM mode.
The formation of acid metabolite was monitored and quantified using one calibration point of 1 μM. The observed rate constant (ke) for the acid metabolite formation was calculated by plotting the metabolite concentration versus time of incubation with the slope being ke and is shown in Table 4.

Structure (SMILES) | ke, observed rate constant for the acid metabolite formation
C=C(Cc1cc(Cl)c(Cc2ccc(O)c(C(C)C)c2F)c(Cl)c1)C(=O)NC [Compound 177, 2-(3,5-dichloro-4-(2-fluoro-4-hydroxy-3-isopropylbenzyl)benzyl)-N-methylacrylamide] | NC
CC(C)c1c(O)ccc(Cc2c(Cl)cc(NCC(N)=O)c(F)c2Cl)c1F [Compound 163, 2-((3,5-dichloro-2-fluoro-4-(2-fluoro-4-hydroxy-3-isopropylbenzyl)phenyl)amino)acetamide] | A (ke is equal to or less than 1.0)
CON(C)C(=O)/C(C)=C/c1cc(Cl)c(Cc2ccc(O)c(C(C)C)c2F)c(Cl)c1 [Compound 122, (E)-3-(3,5-dichloro-4-(2-fluoro-4-hydroxy-3-isopropylbenzyl)phenyl)-N-methoxy-N,2-dimethylacrylamide] | A (ke is equal to or less than 1.0)
CNC(=O)CSc1cc(C)c(Cc2ccc(O)c(C(C)C)c2F)c(Cl)c1 [Compound 233, 2-((3-chloro-4-(2-fluoro-4-hydroxy-3-isopropylbenzyl)-5-methylphenyl)thio)-N-methylacetamide] | C (ke is greater than 2.5)
CC(C)c1c(O)ccc(Cc2c(Cl)cc(NCC(=O)N[C@@H]3C[C@@H]3F)c(F)c2Cl)c1F [Compound 156, 2-((3,5-dichloro-2-fluoro-4-(2-fluoro-4-hydroxy-3-isopropylbenzyl)phenyl)amino)-N-((1R,2S)-2-fluorocyclopropyl)acetamide] | A (ke is equal to or less than 1.0)
COc1ccc(NC(=O)CNc2cc(Cl)c(Cc3ccc(O)c(C(C)C)c3F)c(Cl)c2F)cn1 [Compound 158, 2-((3,5-dichloro-2-fluoro-4-(2-fluoro-4-hydroxy-3-isopropylbenzyl)phenyl)amino)-N-(6-methoxypyridin-3-yl)acetamide] | B (ke is greater than 1.0 and less than or equal to 2.5)
CNC(=O)CNc1cc(C)c(Cc2ccc(O)c(C(C)C)c2F)c(Cl)c1 [Compound 235, 2-((3-chloro-4-(2-fluoro-4-hydroxy-3-isopropylbenzyl)-5-methylphenyl)amino)-N-methylacetamide] | A (ke is equal to or less than 1.0)
CNC(=O)CCc1cc(Cl)c(Cc2ccc(O)c(C(C)C)c2F)c(Cl)c1F [Compound 72, 3-(3,5-dichloro-2-fluoro-4-(2-fluoro-4-hydroxy-3-isopropylbenzyl)phenyl)-N-methylpropanamide] | A (ke is equal to or less than 1.0)
Cc1cc(SCC(N)=O)cc(Cl)c1Cc1ccc(O)c(C(C)C)c1F [Compound 234, 2-((3-chloro-4-(2-fluoro-4-hydroxy-3-isopropylbenzyl)-5-methylphenyl)thio)acetamide] | C (ke is greater than 2.5)
CNC(=O)CCc1cc(C)c(Cc2ccc(O)c(C(C)C)c2F)c(Cl)c1 [Compound 236, 3-(3-chloro-4-(2-fluoro-4-hydroxy-3-isopropylbenzyl)-5-methylphenyl)-N-methylpropanamide] | B (ke is greater than 1.0 and less than or equal to 2.5)
Cc1cc(CSCC(=O)NC2CCCCC2)cc(Cl)c1Cc1ccc(O)c(C(C)C)c1 [Compound 131, 2-((3-chloro-4-(4-hydroxy-3-isopropylbenzyl)-5-methylbenzyl)thio)-N-cyclohexylacetamide] | NC
CNC(=O)/C=C/c1cc(C)c(Cc2ccc(O)c(C(C)C)c2F)c(Cl)c1 [Compound 239, (E)-3-(3-chloro-4-(2-fluoro-4-hydroxy-3-isopropylbenzyl)-5-methylphenyl)-N-methylacrylamide] | NC
CNC(=O)CSc1cc(Cl)c(Cc2ccc(O)c(C(C)C)c2)c(Cl)c1 [Compound 195, 2-((3,5-dichloro-4-(4-hydroxy-3-isopropylbenzyl)phenyl)thio)-N-methylacetamide] | B (ke is greater than 1.0 and less than or equal to 2.5)
CC(C)c1c(O)ccc(Cc2c(Cl)cc(NCC(=O)NCCCF)c(F)c2Cl)c1F [Compound 155, 2-((3,5-dichloro-2-fluoro-4-(2-fluoro-4-hydroxy-3-isopropylbenzyl)phenyl)amino)-N-(3-fluoropropyl)acetamide] | A (ke is equal to or less than 1.0)
COc1ccc(NC(=O)CSc2cc(Cl)c(Cc3ccc(O)c(C(C)C)c3)c(Cl)c2)nn1 [Compound 169, 2-((3,5-dichloro-4-(4-hydroxy-3-isopropylbenzyl)phenyl)thio)-N-(6-methoxypyridazin-3-yl)acetamide] | A (ke is equal to or less than 1.0)

Next, values leading:

ke, observed rate constant for the acid metabolite formation | Structure (SMILES)
C (ke is greater than 2.5) | CC(C)c1cc(Cc2c(Cl)cc(SCC(=O)NC3CC3)cc2Cl)ccc1O [Compound 180, N-cyclopropyl-2-((3,5-dichloro-4-(4-hydroxy-3-isopropylbenzyl)phenyl)thio)acetamide]
A (ke is equal to or less than 1.0) | CCNC(=O)CSc1cc(Cl)c(Cc2ccc(O)c(C(C)C)c2)c(Cl)c1 [Compound 186, 2-((3,5-dichloro-4-(4-hydroxy-3-isopropylbenzyl)phenyl)thio)-N-ethylacetamide]
A (ke is equal to or less than 1.0) | CCNC(=O)CSc1cc(Cl)c(Cc2ccc(O)c(C(C)C)c2)c(Cl)c1F [Compound 189, 2-((3,5-dichloro-2-fluoro-4-(4-hydroxy-3-isopropylbenzyl)phenyl)thio)-N-ethylacetamide]
NC | CC(C)c1cc(Cc2c(Cl)cc(SCC(=O)NC34CC(C3)C4)cc2Cl)ccc1O [Compound 178, N-(bicyclo[1.1.1]pentan-1-yl)-2-((3,5-dichloro-4-(4-hydroxy-3-isopropylbenzyl)phenyl)thio)acetamide]
NC | CNC(=O)CNc1cc(C)c(Cc2ccc(O)c(C(C)C)c2)c(Cl)c1 [Compound 240, 2-((3-chloro-4-(4-hydroxy-3-isopropylbenzyl)-5-methylphenyl)amino)-N-methylacetamide]
NC | CNC(=O)CN(C)c1cc(Cl)c(Cc2ccc(O)c(C(C)C)c2)c(Cl)c1 [Compound 149, 2-((3,5-dichloro-4-(4-hydroxy-3-isopropylbenzyl)phenyl)(methyl)amino)-N-methylacetamide]
A (ke is equal to or less than 1.0) | CNC(=O)CNc1cc(C)c(Cc2ccc(O)c(C(C)C)c2)c(Cl)c1F [Compound 135, 2-((3-chloro-2-fluoro-4-(4-hydroxy-3-isopropylbenzyl)-5-methylphenyl)amino)-N-methylacetamide]
NC | CC(C)c1cc(Cc2c(Cl)cc(CSCC(=O)N(C)C)cc2Cl)ccc1O [Compound 191, 2-((3,5-dichloro-4-(4-hydroxy-3-isopropylbenzyl)benzyl)thio)-N,N-dimethylacetamide]
A (ke is equal to or less than 1.0) | CNC(=O)CNCc1cc(Cl)c(Cc2ccc(O)c(C(C)C)c2)c(Cl)c1 [Compound 111, 2-((3,5-dichloro-4-(4-hydroxy-3-isopropylbenzyl)benzyl)amino)-N-methylacetamide]
